Columns and labels:
PARP-1 [1] = target: T1, PARP-1 (Homo sapiens, UniProt P09874); settings: cited from earlier work
T1 construct: Full length His6-PARP-1 and His6-SUMO-PARP-10 proteins we expressed and purified; His6 (N); made in house

PARP-10 = target: T2, PARP-10 (Homo sapiens, UniProt Q53GL7); test: Competition labeling of PARP-10 by 2-ad-BAD; type: binding
T2 construct: Full length His6-PARP-1 and His6-SUMO-PARP-10 proteins we expressed and purified; His6 (N); SUMO (N); made in house
T2 sequence (Q53GL7 1-1025): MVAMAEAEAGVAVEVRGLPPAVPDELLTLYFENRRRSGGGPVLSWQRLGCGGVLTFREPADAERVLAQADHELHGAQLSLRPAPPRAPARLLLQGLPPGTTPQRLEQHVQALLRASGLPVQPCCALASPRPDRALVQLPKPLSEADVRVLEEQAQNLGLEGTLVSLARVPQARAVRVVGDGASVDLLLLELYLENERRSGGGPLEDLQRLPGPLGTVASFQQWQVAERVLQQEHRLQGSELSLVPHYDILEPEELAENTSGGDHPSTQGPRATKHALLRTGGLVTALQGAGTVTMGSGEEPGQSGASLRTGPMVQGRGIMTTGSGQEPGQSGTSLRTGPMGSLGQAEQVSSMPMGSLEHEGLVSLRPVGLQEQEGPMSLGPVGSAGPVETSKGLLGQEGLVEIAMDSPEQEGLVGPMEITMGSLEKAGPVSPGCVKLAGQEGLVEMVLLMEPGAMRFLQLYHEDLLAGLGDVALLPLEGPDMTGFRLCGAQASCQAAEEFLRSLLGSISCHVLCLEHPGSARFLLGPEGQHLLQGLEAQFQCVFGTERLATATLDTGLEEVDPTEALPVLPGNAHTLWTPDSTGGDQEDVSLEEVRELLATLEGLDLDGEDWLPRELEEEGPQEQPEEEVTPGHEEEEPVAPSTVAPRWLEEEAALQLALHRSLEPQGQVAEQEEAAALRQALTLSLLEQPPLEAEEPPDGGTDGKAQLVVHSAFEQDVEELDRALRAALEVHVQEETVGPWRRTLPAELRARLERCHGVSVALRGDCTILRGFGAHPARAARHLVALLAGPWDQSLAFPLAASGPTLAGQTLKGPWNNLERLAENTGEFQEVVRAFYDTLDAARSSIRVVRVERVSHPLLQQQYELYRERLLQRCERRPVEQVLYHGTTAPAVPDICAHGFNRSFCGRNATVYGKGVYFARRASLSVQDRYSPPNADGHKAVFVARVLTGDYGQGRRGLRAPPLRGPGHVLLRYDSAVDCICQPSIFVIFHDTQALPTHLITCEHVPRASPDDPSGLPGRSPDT
Text: (§1) FIG. 8. Densitometry analyses of FIG. 3A panels (A,B) comparing the inhibitory effect of nucleotides and (B) panels (C,D) comparing inhibitory effect of PARP inhibitors on PARP-1 and PARP-10 labelling by 2-ad-BAD. TAMRA in-gel fluorescence was normalized to Coomassie staining, except for PARP-1 NAD^+ treated samples where relative to control TAMRA signal is reported due to auto-PARylation induced molecular weight shift and therefore not detectable Coomassie signal at PARP-1 molecular weight of ˜110 kDa. Data are mean±SEM of 3 independent experiments.
(§2) Treatments. Recombinant PARP-1 (250 nM), PARP-10 (250 nM) or AK1 (500 nM; Novus Biologicals) were diluted in 100 mM NaCl, 50 mM HEPES [pH 7.4], 4 mM MgCl2, 0.2 mM TCEP. PARP-1 reactions also contained 10 μg/mL of activated calf thymus DNA (Sigma-Aldrich D4522), unless otherwise noted. In experiments reported in FIG. 2, the samples were treated with 0.1 μM 2-ad-BAD or ad-olaparib for 10 min. In competition experiments reported in FIG. 3 and Figure S3, samples were first treated with 150 μM of indicated nucleotides for 10 minute and then with 0.3 μM 2-ad-BAD for additional 10 min. All treatments occurred at RT. Samples were then kept in the dark or irradiated for 5 min in the RPR-100 Photochemical Reactor (Rayonet) equipped with 350 nm lamps at 4° C.
(§3) Click Chemistry. 25 μL of each sample was mixed with 5 μL of fatty acid free BSA and SDS to give a final Click reaction concentration of 1 mg/mL and 1%, respectively. Click reactions were started by adding 15 μL of PBS based 3× click reaction mix (final 1× concentrations shown): 100 μM Tris[(1-benzyl-1H-1,2,3triazol-4-yl)methyl]amine (TBTA, Click Chemistry Tools), 1 mM CuSO4, 40 μM tetramethylrhodamine (TAMRA)-azide (Click Chemistry Tools), 1 mM Tris(2-carboxyethyl)phosphine hydrochloride (TCEP, Thermo Fisher) and 5% tert-Butyl alcohol to each sample, and let to proceed for 1 h at RT while gently shaking. Reactions were stopped by adding 4× Laemmli sample buffer and boiling at 95° C. for 5 min.
(§4) In gel fluorescence and staining. Samples were loaded to 10 or 12% SDS-polyacrylamide gels and run until the dye front left the gel. In-gel fluorescence was detected with ChemiDoc XRS+ (Biorad) using Rhodamine filter and then the gels were stained with Coomassie blue or Silver using standard protocols.

PARP-1 [2] = target: T1, PARP-1; test: Competition labeling of PARP-1 by 2-ad-BAD; type: binding
Text: as §1, §2, §3, §4

[3] = 150 μM nucleotide, 0.3 μM 2-ad-BAD

T1 sequence (P09874 whole entry): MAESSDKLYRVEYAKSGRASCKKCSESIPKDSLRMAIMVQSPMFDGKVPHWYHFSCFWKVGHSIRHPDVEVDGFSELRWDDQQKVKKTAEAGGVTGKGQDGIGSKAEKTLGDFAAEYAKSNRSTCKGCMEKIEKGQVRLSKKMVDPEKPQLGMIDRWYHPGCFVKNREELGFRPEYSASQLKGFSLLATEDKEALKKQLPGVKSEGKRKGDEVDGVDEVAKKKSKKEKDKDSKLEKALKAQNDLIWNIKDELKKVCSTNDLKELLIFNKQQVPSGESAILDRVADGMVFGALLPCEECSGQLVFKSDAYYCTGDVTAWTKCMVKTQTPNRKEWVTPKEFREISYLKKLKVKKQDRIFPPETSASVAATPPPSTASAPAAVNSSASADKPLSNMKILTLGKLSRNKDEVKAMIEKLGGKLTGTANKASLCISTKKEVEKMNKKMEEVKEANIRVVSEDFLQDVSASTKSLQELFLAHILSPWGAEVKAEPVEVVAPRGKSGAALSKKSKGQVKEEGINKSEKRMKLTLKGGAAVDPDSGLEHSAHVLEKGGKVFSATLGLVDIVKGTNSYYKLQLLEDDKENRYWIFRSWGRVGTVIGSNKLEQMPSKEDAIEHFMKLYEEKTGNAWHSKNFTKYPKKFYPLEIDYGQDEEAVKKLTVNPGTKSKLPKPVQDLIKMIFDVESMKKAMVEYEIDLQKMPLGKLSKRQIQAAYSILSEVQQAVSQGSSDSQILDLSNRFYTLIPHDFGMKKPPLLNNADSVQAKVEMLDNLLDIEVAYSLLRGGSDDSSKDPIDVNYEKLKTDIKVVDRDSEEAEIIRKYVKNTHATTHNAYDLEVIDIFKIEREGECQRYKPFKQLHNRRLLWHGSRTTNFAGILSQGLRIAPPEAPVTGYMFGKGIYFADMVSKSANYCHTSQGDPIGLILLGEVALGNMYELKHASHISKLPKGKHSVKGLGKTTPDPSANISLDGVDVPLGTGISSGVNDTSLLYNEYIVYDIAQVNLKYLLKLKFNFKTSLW

block of 2-ad-BAD labeling of PARP-10 by nucleotides (PARP-10; [3]): reduced
block of 2-ad-BAD labeling of PARP-1 by nucleotides (PARP-1 [2]; [3]): reduced
SMILES: NC(=O)c1cccc([C@@H]2O[C@H](COP(=O)(O)OP(=O)(O)OC[C@H]3O[C@@H](n4cnc5c(N)ncnc54)[C@H](O)[C@@H]3O)[C@@H](O)[C@H]2O)c1 [BAD, benzamide adenine dinucleotide]
DNA dependence of binding to PARP-1 (PARP-1 [1]): DNA-dependent
binding to PARP-1 and inhibition of its enzymatic activity (PARP-1 [1]): binds to PARP-1 and inhibits its enzymatic activity
dose-dependent block of 2-ad-BAD labeling of PARP-10 (PARP-10; competitor dose series): dose-dependently block the labeling of PARP-10
dose-dependent block of 2-ad-BAD labeling of PARP-1 (PARP-1 [2]; competitor dose series): dose-dependently block the labeling of PARP-1
